Results on 4 compounds are retold here after US11668702B2, “Regulation of fungal fruiting body development” (The Chinese University of Hong Kong, priority 2017, dated 2023).

The subject of data set [1] is C. cinerea. Kind of data set: C. cinerea fruiting body development, solution spread on YMG agar surface before inoculation (Example 5). Format: cell-based, Coprinopsis cinerea. The conditions noted are these: 6 days light/dark cycle at 25° C. The procedure:
FIG. 9: Effect on C. cinerea fruiting body development by GSK3 inhibitor-LiCl at different concentration. Water or LiCl solution was spread on the surface of YMG agar, before inoculation. After 6-days all dark incubation in 37° C., the plates were transferred to 25° C. with 12-hours light and 12-hours dark cycle (light/dark cycle) for 5-days incubation. […] Initials and hyphal knots formed on the plates treated with 0.75 g/L and 1.5 g/L LiCl respectively.
FIG. 10: Effect on C. cinerea fruiting body development by GSK3 inhibitor-CHIR-99021 HCl at different concentration. Water or CHIR-99021 HCl solution was spread on the surface of YMG agar, before inoculation. After the mycelium reached the edge of plates, the plates were transferred to 25° C. with light/dark cycle for 6-days incubation.
FIG. 11: Effect on C. cinerea fruiting body development by GSK3 activator-Cisplatin at different concentration. Water or Cisplatin solution was spread on the surface of YMG agar, before inoculation. After the mycelium reached the edge of plates, the plates were transferred to 25° C. with light/dark cycle. […] Young fruiting body developed on the control YMG plates treated with water.
Two GSK3 inhibitors (LiCl and CHIR-99021 HCl) and one GSK3 activator (Cisplatin) were tested in Coprinopsis cinerea, and one GSK3 inhibitor (LiCl) was tested in Pleurotus djamor (commonly known as the pink oyster mushroom). Belonging to the same order Agaricales, these two tested mushroom species are of two different families, Psathyrellaceae and Pleurotaceae, respectively.
Water or LiCl solution was spread on the surface of YMG agar before inoculation of C. cinerea. After 6-days all dark incubation in 37° C., the plates were transferred to 25° C. with 12-hours light and 12-hours dark cycle (light/dark cycle) for 5-days incubation. […] Initials and hyphal knots were formed on the plates treated with 0.75 g/L and 1.5 g/L LiCl respectively.
Water or CHIR-99021 HCl solution was spread on the surface of YMG agar before inoculation of C. cinerea. After the mycelium reached the edge of plates, the plates were transferred to 25° C. with light/dark cycle for 6-days incubation.
Water or Cisplatin solution was spread on the surface of YMG agar before C. cinerea inoculation. After the mycelium reached the edge of plates, the plates were transferred to 25° C. with light/dark cycle. […] Young fruiting body developed on the control YMG plates treated with water.

The subject of data set [2] is C. cinerea. Kind of data set: C. cinerea on YMG agar treated with CHIR-99021 HCl (Example 2). It counts as cell-based, Coprinopsis cinerea. The procedure:
Another GSK-3 inhibitor was used to confirm inhibition of LiCl on GSK-3. C. cinerea was cultivated on YMG agar and treated with water for control group and 1 uM, 100 uM and 500 uM of CHIR-99021 HCl for experimental group.

For data set [3] the following is noted: during spa use (PubChem Compound Database); cited from earlier work.
In a further data set the test system is Pleurotus eryngii. Conditions: cited from earlier work.

On to `Cc1cnc(-c2cnc(NCCNc3ccc(C#N)cn3)nc2-c2ccc(Cl)cc2Cl)[nH]1.Cl.Cl.Cl` [CHIR-99021 HCl, 6-[[2-[[4-(2,4-Dichlorophenyl)-5-(5-methyl-1H-imidazol-2-yl)-2-pyrimidinyl]amino]ethyl]amino]-3-pyridinecarbonitrile trihydrochloride], for which the “Fruiting body development stage reached” value in the data set with C. cinerea [1] (1 μM CHIR-99021 HCl) is given as “Young fruiting bodies developed”; in the data set on C. cinerea [1] (100 μM CHIR-99021 HCl) it was “developed primordium”; with C. cinerea [1] (500 μM CHIR-99021 HCl, trihydrochloride), “remained arrested in mycelium stage”. For the same compound, the results for the Fruiting body development result in the data set with C. cinerea [2] (1 uM CHIR-99021 HCl), with C. cinerea [2] (100 uM CHIR-99021 HCl) and with C. cinerea [2] (higher CHIR-99021 HCl concentration (500 uM group)) were “developed initials”, “developed initials” and “inhibited fruiting”, respectively. Further, the Fruiting body formation result in the data set on C. cinerea [2] (concentration not given) is “inhibits fruiting body formation”.
Consider `N.N.[Cl][Pt][Cl]` [Cisplatin, cis-diamminedichloridoplatinum(II)], for which the “Fruiting body development stage reached” value in the data set on C. cinerea [1] (1 ml saturated Cisplatin) is “had fruiting body and began autolysis”.
Regarding `[Li]` [Lithium], in data set [3], the Skin absorption entry was “not absorbed through the skin”.
As for `O=C([O-])[O-].[Li+].[Li+]` [lithium carbonate], the “Lithium carbonate concentration at which fruiting body cannot form” value in the data set with Pleurotus eryngii is reported as “higher than 0.75 mM”.
